{
  "source": "paper PMC5218480",
  "about": "(PLoS ONE, 2017)",
  "system": "MV-4-11 cells",
  "assay": "Gene expression microarray analysis (Affymetrix PrimeView) and GSEA",
  "assay_type": "cell-based, human",
  "design": "RFU PODN (11730768_x_at) / Fold change /veh PODN (11730768_x_at) / RFU LINC00158 (11744669_a_at) / Fold change /veh LINC00158 (11744669_a_at) / RFU DUSP10 (11751237_a_at) / Fold change /veh DUSP10 (11751237_a_at) / RFU ID3 (11757404_x_at) / Fold change /veh ID3 (11757404_x_at) / RFU PLEKHG5 (11737974_s_at) / Fold change /veh PLEKHG5 (11737974_s_at) / RFU LRRC4B (11730491_at) / Fold change /veh LRRC4B (11730491_at) / RFU GIMAP4 (11747438_a_at) / Fold change /veh GIMAP4 (11747438_a_at) / RFU KRT8 (11758183_x_at) / Fold change /veh KRT8 (11758183_x_at) / RFU CNN1 (11734310_a_at) / Fold change /veh CNN1 (11734310_a_at) / RFU VPS37D (11726825_at) / Fold change /veh VPS37D (11726825_at) / RFU C10orf10 (11716522_x_at) / Fold change /veh C10orf10 (11716522_x_at) / RFU KIR2DL2 /// KIR2DL4 /// KIR2DL5A /// KIR2DL5B /// KIR2DS1 /// KIR2DS2 /// KIR2DS3 /// KIR2DS4 /// KIR3DL3 /// KIR3DL3 /// KIR3DS1 (11738374_at) / Fold change /veh KIR2DL2 /// KIR2DL4 /// KIR2DL5A /// KIR2DL5B /// KIR2DS1 /// KIR2DS2 /// KIR2DS3 /// KIR2DS4 /// KIR3DL3 /// KIR3DL3 /// KIR3DS1 (11738374_at) / RFU C1QL1 (11718748_at) / Fold change /veh C1QL1 (11718748_at) / RFU TMPRSS4 (11747572_a_at) / Fold change /veh TMPRSS4 (11747572_a_at) / RFU HAMP (11756126_x_at) / Fold change /veh HAMP (11756126_x_at) / RFU RNFT2 (11725882_a_at) / Fold change /veh RNFT2 (11725882_a_at) / RFU NR4A2 (11747474_a_at) / Fold change /veh NR4A2 (11747474_a_at) / RFU ABCC12 (11746883_a_at) / Fold change /veh ABCC12 (11746883_a_at) / RFU TMEM136 (11760407_x_at) / Fold change /veh TMEM136 (11760407_x_at) / RFU CLDN22 /// WWC2 (11732394_at) / Fold change /veh CLDN22 /// WWC2 (11732394_at) / RFU HLA-DPB1 (11760878_x_at) / Fold change /veh HLA-DPB1 (11760878_x_at) / RFU SPINT1 (11716480_a_at) / Fold change /veh SPINT1 (11716480_a_at) / RFU GAP43 (11754022_s_at) / Fold change /veh GAP43 (11754022_s_at) / RFU A4GNT (11735810_at) / Fold change /veh A4GNT (11735810_at) / RFU PRB3 (11715151_x_at) / Fold change /veh PRB3 (11715151_x_at) / RFU TUBB4B (11761932_at) / Fold change /veh TUBB4B (11761932_at) / RFU CAPN14 (11732068_a_at) / Fold change /veh CAPN14 (11732068_a_at) / RFU TMCC2 (11721928_a_at) / Fold change /veh TMCC2 (11721928_a_at) / RFU IRGQ (11745062_a_at) / Fold change /veh IRGQ (11745062_a_at) / RFU FAM174B (11720279_a_at) / Fold change /veh FAM174B (11720279_a_at) / RFU TMPRSS4 (11748680_a_at) / Fold change /veh TMPRSS4 (11748680_a_at) / RFU FAM212B (11763350_a_at) / Fold change /veh FAM212B (11763350_a_at) / RFU PLEKHG5 (11743358_a_at) / Fold change /veh PLEKHG5 (11743358_a_at) / RFU ZSCAN30 (11745921_a_at) / Fold change /veh ZSCAN30 (11745921_a_at) / RFU CMKLR1 (11741424_a_at) / Fold change /veh CMKLR1 (11741424_a_at) / RFU LOC101060620 /// MAPK8IP1 (11723275_at) / Fold change /veh LOC101060620 /// MAPK8IP1 (11723275_at) / RFU SPTSSB (11747773_x_at) / Fold change /veh SPTSSB (11747773_x_at) / RFU PRSS12 (11739890_at) / Fold change /veh PRSS12 (11739890_at) / RFU BIN1 (11741810_x_at) / Fold change /veh BIN1 (11741810_x_at) / RFU WNT11 (11732464_a_at) / Fold change /veh WNT11 (11732464_a_at) / RFU C10orf10 (11716521_a_at) / Fold change /veh C10orf10 (11716521_a_at) / RFU C5orf56 (11738089_at) / Fold change /veh C5orf56 (11738089_at) / RFU CYB561 (11721691_x_at) / Fold change /veh CYB561 (11721691_x_at) / RFU ANKRD19P (11752326_a_at) / Fold change /veh ANKRD19P (11752326_a_at) / RFU OR2T12 /// OR2T33 /// OR2T8 (11738714_s_at) / Fold change /veh OR2T12 /// OR2T33 /// OR2T8 (11738714_s_at) / RFU VCAN (11748164_a_at) / Fold change /veh VCAN (11748164_a_at) / RFU JSRP1 (11732532_at) / Fold change /veh JSRP1 (11732532_at) / RFU KRTAP10-11 (11738290_x_at) / Fold change /veh KRTAP10-11 (11738290_x_at) / RFU MYO3A (11730013_a_at) / Fold change /veh MYO3A (11730013_a_at) / RFU EBF3 (11725865_a_at) / Fold change /veh EBF3 (11725865_a_at) / RFU CAMK2N1 (11719241_x_at) / Fold change /veh CAMK2N1 (11719241_x_at) / RFU C5orf56 (11738088_a_at) / Fold change /veh C5orf56 (11738088_a_at) / RFU OLFML3 (11715873_a_at) / Fold change /veh OLFML3 (11715873_a_at) / RFU LOC100653217 /// NTM (11731650_a_at) / Fold change /veh LOC100653217 /// NTM (11731650_a_at) / RFU MAPK11 (11762145_a_at) / Fold change /veh MAPK11 (11762145_a_at) / RFU FIZ1 (11724087_x_at) / Fold change /veh FIZ1 (11724087_x_at) / RFU OASL (11726364_x_at) / Fold change /veh OASL (11726364_x_at) / RFU SOX15 (11748057_x_at) / Fold change /veh SOX15 (11748057_x_at) / RFU CD79A (11719716_a_at) / Fold change /veh CD79A (11719716_a_at) / RFU HIST1H1D (11736915_at) / Fold change /veh HIST1H1D (11736915_at) / RFU CASKIN2 (11723855_a_at) / Fold change /veh CASKIN2 (11723855_a_at) / RFU LOC730098 (11760151_x_at) / Fold change /veh LOC730098 (11760151_x_at) / RFU OR4N2 (11742367_at) / Fold change /veh OR4N2 (11742367_at) / RFU PRRT2 (11749266_a_at) / Fold change /veh PRRT2 (11749266_a_at) / RFU SNX32 (11753110_a_at) / Fold change /veh SNX32 (11753110_a_at) / RFU CDHR5 (11726645_a_at) / Fold change /veh CDHR5 (11726645_a_at) / RFU RCAN1 (11760418_a_at) / Fold change /veh RCAN1 (11760418_a_at) / RFU FAM167A (11723789_a_at) / Fold change /veh FAM167A (11723789_a_at) / RFU FAM26E (11764081_at) / Fold change /veh FAM26E (11764081_at) / RFU ISYNA1 (11749810_s_at) / Fold change /veh ISYNA1 (11749810_s_at) / RFU ACY1 (11761880_at) / Fold change /veh ACY1 (11761880_at) / RFU 11764098_at / Fold change /veh 11764098_at / RFU SAMD14 (11745864_x_at) / Fold change /veh SAMD14 (11745864_x_at) / RFU NPB (11741838_a_at) / Fold change /veh NPB (11741838_a_at) / RFU TMPRSS6 (11731388_a_at) / Fold change /veh TMPRSS6 (11731388_a_at) / RFU KRTAP10-2 (11738614_at) / Fold change /veh KRTAP10-2 (11738614_at) / RFU ARHGAP8 /// PRR5-ARHGAP8 (11727945_x_at) / Fold change /veh ARHGAP8 /// PRR5-ARHGAP8 (11727945_x_at) / RFU KRTAP5-7 /// NADSYN1 (11734609_at) / Fold change /veh KRTAP5-7 /// NADSYN1 (11734609_at) / RFU RASL12 (11751679_a_at) / Fold change /veh RASL12 (11751679_a_at) / RFU CDKN2B (11736163_a_at) / Fold change /veh CDKN2B (11736163_a_at) / RFU PRF1 (11729649_at) / Fold change /veh PRF1 (11729649_at) / RFU, ZNF638 /// ZNF638-IT1 / Fold change vs veh, ZNF638 /// ZNF638-IT1 / RFU, PANK3 / Fold change vs veh, PANK3 / RFU, SH3YL1 / Fold change vs veh, SH3YL1 / RFU, ZEB2 / Fold change vs veh, ZEB2 / RFU, NRIP1 / Fold change vs veh, NRIP1 / RFU, PTTG1IP / Fold change vs veh, PTTG1IP / RFU, CAPN2 / Fold change vs veh, CAPN2 / RFU, MED14 / Fold change vs veh, MED14 / RFU, SNORA58 / Fold change vs veh, SNORA58 / RFU, C1orf63 / Fold change vs veh, C1orf63 / RFU, LRRFIP1 / Fold change vs veh, LRRFIP1 / RFU, NDUFAF7 / Fold change vs veh, NDUFAF7 / RFU, SLC12A2 / Fold change vs veh, SLC12A2 / RFU, IBTK / Fold change vs veh, IBTK / RFU, ESF1 / Fold change vs veh, ESF1 / Fold change vs veh, TMEM50B / RFU, TAOK1 / Fold change vs veh, TAOK1 / RFU, ACBD3 / Fold change vs veh, ACBD3 / RFU, TMA16 / Fold change vs veh, TMA16 / RFU, RWDD3 / Fold change vs veh, RWDD3 / RFU, BCAT1 / Fold change vs veh, BCAT1 / RFU, EDEM3 / Fold change vs veh, EDEM3 / RFU, TMEM33 / Fold change vs veh, TMEM33 / RFU, WDR75 / Fold change vs veh, WDR75 / RFU, AHCTF1 / Fold change vs veh, AHCTF1 / RFU, TFRC / Fold change vs veh, TFRC / RFU, ZDHHC17 / Fold change vs veh, ZDHHC17 / RFU, NOM1 / Fold change vs veh, NOM1 / RFU, ARL8B / Fold change vs veh, ARL8B / RFU, ZBTB11 / Fold change vs veh, ZBTB11 / RFU, TAMM41 / Fold change vs veh, TAMM41 / RFU, KIAA1704 /// LOC100996395 / Fold change vs veh, KIAA1704 /// LOC100996395 / RFU, ING1 / Fold change vs veh, ING1 / RFU, TRMT61B / Fold change vs veh, TRMT61B / RFU, FUBP3 / Fold change vs veh, FUBP3 / RFU, TP53 / Fold change vs veh, TP53 / RFU, TNKS2 / Fold change vs veh, TNKS2 / RFU, ZFP14 / Fold change vs veh, ZFP14 / RFU, ACTR2 / Fold change vs veh, ACTR2 / RFU, PPP3R1 / Fold change vs veh, PPP3R1 / RFU, PIK3R1 / Fold change vs veh, PIK3R1 / RFU, HNRNPA1 / Fold change vs veh, HNRNPA1 / RFU, RNF170 / Fold change vs veh, RNF170 / RFU, ZNF28 / Fold change vs veh, ZNF28 / RFU, RNGTT / Fold change vs veh, RNGTT / RFU, OGT / Fold change vs veh, OGT / RFU, BRD1 / Fold change vs veh, BRD1 / RFU, MARS / Fold change vs veh, MARS / RFU, ZNF655 / Fold change vs veh, ZNF655 / RFU, FAHD1 / Fold change vs veh, FAHD1 / RFU, BDP1 / Fold change vs veh, BDP1 / RFU, LRRCC1 / Fold change vs veh, LRRCC1 / RFU, ARID1A / Fold change vs veh, ARID1A / RFU, ZNF146 / Fold change vs veh, ZNF146 / RFU, ZNF330 / Fold change vs veh, ZNF330 / RFU, GPN3 / Fold change vs veh, GPN3 / RFU, C9orf123 / Fold change vs veh, C9orf123 / RFU, N4BP2L2 / Fold change vs veh, N4BP2L2 / RFU, ARFIP1 / Fold change vs veh, ARFIP1 / RFU, FAM179B / Fold change vs veh, FAM179B / RFU, BCL10 / Fold change vs veh, BCL10 / RFU, UHRF1BP1L / Fold change vs veh, UHRF1BP1L / RFU, BET1 / Fold change vs veh, BET1 / RFU, CNOT2 / Fold change vs veh, CNOT2 / RFU, ZNF268 / Fold change vs veh, ZNF268 / Fold change vs veh, ZNF507 / RFU, DGCR2 / Fold change vs veh, DGCR2 / RFU, WDSUB1 / Fold change vs veh, WDSUB1 / Fold change vs veh, HSP90B1 /// MIR3652 / RFU, ADSS / Fold change vs veh, ADSS / RFU, GK / Fold change vs veh, GK / RFU, ZNF148 / Fold change vs veh, ZNF148 / RFU, TAF9 / Fold change vs veh, TAF9 / RFU, SLC1A5 / Fold change vs veh, SLC1A5 / RFU, SLMO2 / Fold change vs veh, SLMO2 / RFU, ABCC4 / Fold change vs veh, ABCC4 / RFU, LOC101060439 /// RAP1B / Fold change vs veh, LOC101060439 /// RAP1B / RFU, RFX7 / Fold change vs veh, RFX7 / RFU, GTPBP10 / Fold change vs veh, GTPBP10 / RFU, CNEP1R1 / Fold change vs veh, CNEP1R1 / RFU, BIVM-ERCC5 /// ERCC5 / Fold change vs veh, BIVM-ERCC5 /// ERCC5 / RFU, ILF3 / Fold change vs veh, ILF3 / RFU 11762660_at / Fold change /veh 11762660_at / RFU VCAN (11757783_s_at) / Fold change /veh VCAN (11757783_s_at) / RFU DDX43 (11728927_at) / Fold change /veh DDX43 (11728927_at) / RFU KRT8 (11758188_x_at) / Fold change /veh KRT8 (11758188_x_at) / RFU NKD1 (11759106_at) / Fold change /veh NKD1 (11759106_at) / RFU SRD5A1 (11742802_a_at) / Fold change /veh SRD5A1 (11742802_a_at) / RFU TPSAB1 /// TPSB2 (11721975_s_at) / Fold change /veh TPSAB1 /// TPSB2 (11721975_s_at) / RFU GSTM3 (11746129_a_at) / Fold change /veh GSTM3 (11746129_a_at) / RFU IL23R (11737362_x_at) / Fold change /veh IL23R (11737362_x_at) / RFU TMEM51 (11727254_a_at) / Fold change /veh TMEM51 (11727254_a_at) / RFU PIWIL2 (11732686_x_at) / Fold change /veh PIWIL2 (11732686_x_at) / RFU ORM1 (11744905_x_at) / Fold change /veh ORM1 (11744905_x_at) / RFU CCDC152 (11743942_at) / Fold change /veh CCDC152 (11743942_at) / RFU ECM1 (11717891_a_at) / Fold change /veh ECM1 (11717891_a_at) / RFU IL23R (11748794_a_at) / Fold change /veh IL23R (11748794_a_at) / RFU TNFAIP8L3 (11732012_x_at) / Fold change /veh TNFAIP8L3 (11732012_x_at) / RFU MBOAT4 (11741988_at) / Fold change /veh MBOAT4 (11741988_at) / RFU 11764193_at / Fold change /veh 11764193_at / RFU TMEM53 (11763286_at) / Fold change /veh TMEM53 (11763286_at) / RFU MAGEB2 (11727129_at) / Fold change /veh MAGEB2 (11727129_at) / RFU TMEM200A (11744735_a_at) / Fold change /veh TMEM200A (11744735_a_at) / RFU CCDC152 (11751479_a_at) / Fold change /veh CCDC152 (11751479_a_at) / RFU FAM211A (11726209_a_at) / Fold change /veh FAM211A (11726209_a_at) / RFU RGS16 (11746705_a_at) / Fold change /veh RGS16 (11746705_a_at) / RFU VCAN (11755009_s_at) / Fold change /veh VCAN (11755009_s_at) / RFU RHOB (11743442_s_at) / Fold change /veh RHOB (11743442_s_at) / RFU RGS16 (11720943_a_at) / Fold change /veh RGS16 (11720943_a_at) / RFU RGS16 (11720944_at) / Fold change /veh RGS16 (11720944_at) / RFU, VPS4B / Fold change vs veh, VPS4B / RFU, CREB1 / Fold change vs veh, CREB1 / RFU, DNAJC13 / Fold change vs veh, DNAJC13 / RFU, GNAQ / Fold change vs veh, GNAQ / RFU, CDK5R1 / Fold change vs veh, CDK5R1 / RFU, ZRANB3 / Fold change vs veh, ZRANB3 / RFU, CUL4A / Fold change vs veh, CUL4A / RFU, CCNY / Fold change vs veh, CCNY / RFU, UFL1 / Fold change vs veh, UFL1 / RFU, COG3 / Fold change vs veh, COG3 / RFU, DIAPH2 / Fold change vs veh, DIAPH2 / RFU, SKA2 / Fold change vs veh, SKA2 / RFU, AFF3 / Fold change vs veh, AFF3 / RFU, LMF1 / Fold change vs veh, LMF1 / RFU, IPO11 / Fold change vs veh, IPO11 / RFU, DFFB / Fold change vs veh, DFFB / RFU, FOXP1 / Fold change vs veh, FOXP1 / RFU, CARD8 / Fold change vs veh, CARD8 / RFU, STRN3 / Fold change vs veh, STRN3 / RFU, ADK / Fold change vs veh, ADK / RFU, RASSF2 / Fold change vs veh, RASSF2 / RFU, WIPF1 / Fold change vs veh, WIPF1 / RFU, LARP1B / Fold change vs veh, LARP1B / RFU, RASA1 / Fold change vs veh, RASA1 / RFU, RB1 / Fold change vs veh, RB1 / RFU, PPFIA1 / Fold change vs veh, PPFIA1 / RFU, MAT2A / Fold change vs veh, MAT2A / RFU, CCT5 / Fold change vs veh, CCT5 / RFU, WDR92 / Fold change vs veh, WDR92 / RFU, CUX1 / Fold change vs veh, CUX1 / RFU, TTC7A / Fold change vs veh, TTC7A / RFU, TMEM135 / Fold change vs veh, TMEM135 / RFU, DEPTOR / Fold change vs veh, DEPTOR / RFU, CPM / Fold change vs veh, CPM / RFU, DNAJB6 / Fold change vs veh, DNAJB6 / RFU, CACNA2D3 / Fold change vs veh, CACNA2D3 / RFU, DTX4 / Fold change vs veh, DTX4 / RFU, TFCP2 / Fold change vs veh, TFCP2 / RFU, GMCL1 /// GMCL1P1 / Fold change vs veh, GMCL1 /// GMCL1P1 / RFU, AEBP2 / Fold change vs veh, AEBP2 / RFU, SNHG1 /// SNORD22 /// SNORD25 /// SNORD26 /// SNORD27 /// SNORD28 /// SNORD29 /// SNORD31 / Fold change vs veh, SNHG1 /// SNORD22 /// SNORD25 /// SNORD26 /// SNORD27 /// SNORD28 /// SNORD29 /// SNORD31 / Fold change (Aza/veh), C12orf56 (ProbeSet 11735607_a_at) / Fold change (ACY-1035/veh), C12orf56 (ProbeSet 11735607_a_at) / Fold change (Aza/veh), FGFR1OP (ProbeSet 11751329_s_at) / Fold change (ACY-1035/veh), FGFR1OP (ProbeSet 11751329_s_at) / Fold change (Aza/veh), VPS36 (ProbeSet 11739960_a_at) / Fold change (ACY-1035/veh), VPS36 (ProbeSet 11739960_a_at) / RFU SYPL1 (11715823_x_at) / Fold change /veh SYPL1 (11715823_x_at) / RFU IGFBP7 (11715501_s_at) / Fold change /veh IGFBP7 (11715501_s_at) / RFU REEP3 (11722064_at) / Fold change /veh REEP3 (11722064_at) / RFU IGLL1 (11728026_x_at) / Fold change /veh IGLL1 (11728026_x_at): dose or concentration left out as unconfirmed",
  "conditions": "MV-4-11 cells, 48 hours",
  "data": [
    {"smiles": "Nc1ncn([C@@H]2O[C@H](CO)[C@@H](O)[C@H]2O)c(=O)n1", "note": "[azacitidine]", "values": [
      {"measurement": "Fold change /veh FAM211A (11726209_a_at)", "result": 1.26}
    ]}
  ]
}
